From patent US20190029970A1, “FATTY ACID CONJUGATED NANOPARTICLES AND USES THEREOF” (The Chinese University of Hong Kong, priority 2017, published 2019)

Assay: In vitro release of curcumin by dialysis in 0.1% Tween 20 at 37° C.
Assay type: physicochemical
Settings: within 24 hours; free curcumin 2 mg/mL in 2-propanol
Experimental: The in vitro release profiles of the drug-loaded NPs were assessed in 0.1% Tween 20 at 37° C. based on a dialysis method reported earlier with modifications. Briefly, 1 mL of the NPs was added into a dialysis tube (Float-A-lyzer G2 with a membrane MWCO 3.5-5 kD, Spectrum Laboratories, Inc., Rancho Dominguez, Calif., USA), which was subsequently placed in 250 mL of 0.1% Tween 20 at 37° C. Dialysate was replaced periodically. Samples (10 μL) were withdrawn from the dialysis tube at designated time points. The samples collected were analyzed using a UPLC-UV method and GraphPad Prism 5 was employed to plot the cumulative drug release versus time. The diffusional behaviour of curcumin (2 mg/mL in isopropanol) was also determined using the same procedure, except the dialysate was replaced with isopropanol.

curcumin released: > 80%
Structure (SMILES): COc1cc(/C=C/C(=O)CC(=O)/C=C/c2ccc(O)c(OC)c2)ccc1O [free curcumin, curcumin]
